The record followed here is US9012487B2, “Bicyclo-pyrazoles active as kinase inhibitors” (Nerviano Medical Sciences S.r.l., priority 2006, dated 2015).

Usually IC50 stands for the concentration needed to halve the response being measured.

Counter-ions that a name gives are not always drawn.

Test [1] deals with IGF-1 induced S6 ribosomal protein phosphorylation. The test can be described thus: Growth factor induced S6 ribosomal protein phosphorylation in primary human fibroblasts (NHDF). The test is classed as cell-based. As to conditions: normal human dermal fibroblasts (NHDF), stimulated with 10 nM IGF-1; read-out: Inhibition of IGF1R-induced S6 phosphorytation IC50. The procedure: Growth Factor Induced S6 Ribosomal Protein Phosphorylation in Primary Human Fibroblasts. Phosphorylation of S6 ribosomal protein in response to growth factor stimulation of normal human dermal fibroblasts (NHDF) was used to assess compound potency in inhibiting IGF-1 induced signal transduction in cells, and selectivity towards EGF and PDGF stimulus. NHDF cells obtained from PromoCell (Heidelberg, Germany), were maintained at 37° C. in a humidified atmosphere with 5% CO2 in complete Fibroblast Growth Medium (PromoCell). For assay, NHDF were seeded in 384-well tissue culture plates (clear- and flat-bottomed black plates; Matrix Technologies Inc., Hudson, N.H., USA) at a density of 5000 cells/well in serum-free medium containing 0.1% bovine serum albumin (BSA) and incubated for 5 days. […] Fluorescence images in the DAPI and Cy5™ channels were automatically acquired, stored and analysed using a Cellomics ArrayScan™ IV instrument (Cellomics, Pittsburgh, USA); the Cellomics Cytotoxicity Algorithm was used to quantify cytoplasmic fluorescence associated with phospho-S6 (Cy5™ signal parameter: “Mean Lyso Mass-pH”) for each cell in 10 fields/well, and eventually expressed as a mean population value. […]

Another test addresses T1, IGF-1R (Homo sapiens, UniProt P08069, M1123C/Y1125N).
T1 construct: made in house; host or cells: baculovirus; virus made in Sf21, protein expressed in H5 insect cells
As to the kind of experiment: Inhibition assay for IGF-1R kinase activity (Scintillation Proximity Assay). As to conditions: read-out: IGF1R IC50 (μM) Biochemical assay. How it is done: Human cDNA was used as template for amplification by polymerase chain reaction (PCR) of the whole cytoplasmic portion of IGF-1R (amino acid residues 960-1367), which includes the entire kinase domain. PCR was conducted using the forward primer sequence 5′-[…]-3′ (SEQ ID NO: 1) and the reverse primer sequence 5′-[…]-3′ (SEQ ID NO: 2). In order to facilitate subsequent cloning steps, both primers comprise a BamHI restriction endonuclease site sequence. The PCR product was cloned into a transfer vector for the baculovirus expression system, pVL1393 (Pharmingen), modified to include the sequence encoding the Glutathione S-transferase (GST) fusion protein and a PreScission cleavage site upstream of the inserted gene of interest. The GST-IGF-1R coding region corresponds to nucleic acid residues of 4168-6084. The final protein encoded by the open reading frame corresponds to a fusion protein of 639 amino acids, shown in SEQ ID NO: 3 (FIG. 1). […]
The inhibitory activity of putative kinase inhibitors and the potency of selected compounds was determined using a Scintillation Proximity Assay (SPA) in 96 well microtiter plate format. […] When a radioactively labeled phosphate moiety is transferred by the kinase to the biotinylated peptide, this stimulates light emission by the bead, which is measured in a scintillation counter. […]

The next test deals with T2, IGF1R (Homo sapiens, UniProt P08069).
T2 construct: endogenous in cells; host or cells: MCF-7 (ATCC #HTB-22)
The test can be described thus: Western blot analysis of receptor phosphorylation following stimulation with IGF-1 in MCF-7 human breast cancer cells. The test is classed as cell-based. As to conditions: MCF-7 starved cells stimulated with 10 nM IGF1; increasing concentrations of compound; Western blot band of pIGF1R (FIG. 2). How it is done: Treatment of starved MCF-7 cells with 10 nM IGF1 induced receptor auto-phosphorylation as shown by the appearance of a more intense band of phosphorylated IGF1R (pIGF1R).
Western Blot Analysis of Receptor Phosphorylation Following Stimulation with IGF-1 in MCF-7 Human Breast Cancer Cells
MCF-7 cells (ATCC #HTB-22) were seeded in 12-well tissue culture plates at 2×10^5 cells/well in E-MEM medium (MEM+Earle's BSS+2 mM glutamine+0.1 mM non-essential amino acids)+10% FCS, and incubated overnight at 37° C., 5% CO2, 100% relative humidity. Cells were then starved by replacing E-MEM+10% FCS with E-MEM+0.1% BSA, and incubating overnight. After this incubation, wells were treated with desired concentrations of compound for 1 hour at 37° C., and were then stimulated with 10 nM recombinant human IGF-1 (Invitrogen, Carlsbad, Calif., USA) for 10 minutes at 37° C. Cells were then washed with PBS and lysed in 100 microL/well cell lysis buffer (M-PER Mammalian Protein Extraction Reagent [Product #78501, Pierce, Rockford, Ill., USA]+10 mM EDTA+Protease inhibitor cocktail [Sigma-Aldrich product #P8340]+phosphatase inhibitor cocktail [Sigma-Aldrich products #P2850+#P5726]). […]
In general terms: In western blotting, separated proteins are transferred to a membrane and probed.

T2 sequence (P08069 31-1367): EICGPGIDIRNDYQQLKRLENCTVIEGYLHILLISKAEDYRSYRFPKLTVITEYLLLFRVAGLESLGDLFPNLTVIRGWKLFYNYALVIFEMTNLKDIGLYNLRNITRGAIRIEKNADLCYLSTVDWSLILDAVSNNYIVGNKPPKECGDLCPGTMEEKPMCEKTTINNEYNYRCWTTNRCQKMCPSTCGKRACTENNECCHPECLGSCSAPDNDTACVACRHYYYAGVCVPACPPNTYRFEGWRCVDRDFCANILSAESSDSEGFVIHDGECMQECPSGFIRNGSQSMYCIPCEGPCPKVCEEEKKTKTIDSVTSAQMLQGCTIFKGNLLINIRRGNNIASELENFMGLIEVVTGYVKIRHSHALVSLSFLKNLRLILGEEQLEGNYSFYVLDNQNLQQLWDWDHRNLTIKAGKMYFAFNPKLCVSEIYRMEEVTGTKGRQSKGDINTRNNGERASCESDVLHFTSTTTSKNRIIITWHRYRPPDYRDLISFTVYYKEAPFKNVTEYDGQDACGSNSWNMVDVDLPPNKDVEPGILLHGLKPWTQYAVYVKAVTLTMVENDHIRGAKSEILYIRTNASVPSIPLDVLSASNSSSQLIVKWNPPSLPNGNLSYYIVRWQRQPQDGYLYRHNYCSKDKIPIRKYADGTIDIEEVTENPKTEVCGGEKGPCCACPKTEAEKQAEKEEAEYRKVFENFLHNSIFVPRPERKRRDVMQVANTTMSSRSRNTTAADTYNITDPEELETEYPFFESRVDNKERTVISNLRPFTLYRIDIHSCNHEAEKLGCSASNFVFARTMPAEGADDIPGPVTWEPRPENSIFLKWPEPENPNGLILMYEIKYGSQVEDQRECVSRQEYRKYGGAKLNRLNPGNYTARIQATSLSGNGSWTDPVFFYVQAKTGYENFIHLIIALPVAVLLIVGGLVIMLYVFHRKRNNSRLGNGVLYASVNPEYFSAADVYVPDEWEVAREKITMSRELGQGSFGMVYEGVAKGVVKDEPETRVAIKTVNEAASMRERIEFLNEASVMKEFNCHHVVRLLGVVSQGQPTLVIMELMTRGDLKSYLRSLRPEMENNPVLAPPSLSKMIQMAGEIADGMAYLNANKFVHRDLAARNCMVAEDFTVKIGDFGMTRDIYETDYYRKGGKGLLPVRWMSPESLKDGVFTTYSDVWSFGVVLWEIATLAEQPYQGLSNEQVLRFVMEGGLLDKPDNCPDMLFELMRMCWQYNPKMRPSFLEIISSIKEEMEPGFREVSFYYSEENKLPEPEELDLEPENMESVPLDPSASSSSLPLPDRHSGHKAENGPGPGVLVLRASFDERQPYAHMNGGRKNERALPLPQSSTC
T1 sequence (P08069 with tags, fused parts or gaps M1123C/Y1125N): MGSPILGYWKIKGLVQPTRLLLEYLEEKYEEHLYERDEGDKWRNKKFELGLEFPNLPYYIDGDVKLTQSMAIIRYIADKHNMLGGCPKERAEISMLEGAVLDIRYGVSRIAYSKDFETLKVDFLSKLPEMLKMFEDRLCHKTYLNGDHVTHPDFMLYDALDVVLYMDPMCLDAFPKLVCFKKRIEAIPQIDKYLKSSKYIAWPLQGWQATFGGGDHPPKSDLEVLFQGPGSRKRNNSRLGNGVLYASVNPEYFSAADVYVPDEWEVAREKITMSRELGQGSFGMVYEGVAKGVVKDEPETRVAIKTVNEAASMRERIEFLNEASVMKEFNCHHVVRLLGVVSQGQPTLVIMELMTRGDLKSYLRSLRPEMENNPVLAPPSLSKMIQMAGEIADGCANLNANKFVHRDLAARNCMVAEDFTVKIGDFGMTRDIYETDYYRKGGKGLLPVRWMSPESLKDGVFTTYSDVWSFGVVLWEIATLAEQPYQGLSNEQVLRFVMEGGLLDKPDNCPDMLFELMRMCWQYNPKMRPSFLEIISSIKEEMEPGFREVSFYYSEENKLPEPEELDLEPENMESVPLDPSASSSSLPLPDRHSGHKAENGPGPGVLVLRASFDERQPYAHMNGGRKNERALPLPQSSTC

In the case of `CCOC(=O)n1nc(NC(=O)c2ccc(N3CCN(C)CC3)c(N(C)CCOC)c2)c2c1CNC2` [Example 24, 3-[3-[(2-Methoxy-ethyl)-methyl-amino]-4-(4-methyl-piperazin-1-yl)-benzoylamino]-5,6-dihydro-4H-pyrrolo[3,4-c]pyrazole-1-carboxylic acid ethyl ester hydrochloride], the figures for the IC50 (in test [1]; at IGF-1R) were 3050 nM and 0.34 µM, respectively.

Turning to `CN1CCN(c2ccc(C(=O)Nc3n[nH]c4c3CN(S(=O)(=O)c3cc(F)cc(F)c3)C4(C)C)cc2)CC1` [Example 43, N-[5-(3,5-difluoro-benzenesulfonyl)-6,6-dimethyl-1,4,5,6-tetrahydro-pyrrolo[3,4-c]pyrazol-3-yl]-4-(4-methyl-piperazin-1-yl)-benzamide], on IGF1R, the “inhibition of IGF1R auto-phosphorylation” value was “inhibition of IGF1-induced IGF1R auto-phosphorylation”.

Consider `CN1CCN(c2ccc(C(=O)Nc3n[nH]c4c3CN(S(=O)(=O)c3cc(F)cc(F)c3)C4(C)C)c(F)c2)CC1` [Example 49, N-[5-(3,5-Difluoro-benzenesulfonyl)-6,6-dimethyl-1,4,5,6-tetrahydro-pyrrolo[3,4-c]pyrazol-3-yl]-2-fluoro-4-(4-methyl-piperazin-1-yl)-benzamide], for which the “inhibition of IGF1R auto-phosphorylation” value on IGF1R is listed as “inhibition of IGF1-induced IGF1R auto-phosphorylation”.
